Peptide text beside a SMILES is read from it. * marks the point of attachment. Tyr(Nα,Nα-Bn2) = O=C([C@H](Cc1ccc(O)cc1)N(Cc1ccccc1)Cc1ccccc1)*; Tyr(Nα,Nα-allyl2) = C=CCN(CC=C)[C@@H](Cc1ccc(O)cc1)C(=O)*; X4 = O=C([C@H](Cc1ccc(O)cc1)N(CCc1ccccc1)CCc1ccccc1)*; X5 = CCCCCCCCN(CCCCCCCC)[C@@H](Cc1ccc(O)cc1)C(=O)*; X3 = O=C([C@H](Cc1ccc(O)cc1)N(CC1CC1)CC1CC1)*; X1 = CCCCCN(CCCCC)[C@@H](Cc1ccc(O)cc1)C(=O)*; X2 = CCCN(CCC)[C@@H](Cc1ccc(O)cc1)C(=O)*
Columns and labels:
Mus musculus = species on record: Mus musculus; experiment: Agonistic activity was measured on the electrically stimulated longitudinal muscle of the mouse vas deferens (MVD) at 1 uM concentration; conditions: Muscle tissue
Cavia porcellus = species on record: Cavia porcellus; experiment: Agonistic activity was measured on the electrically stimulated longitudinal muscle of the guinea pig ileum (GPI) at 1 uM concentration; conditions: Muscle tissue

CCCCCN(CCCCC)[C@@H](Cc1ccc(O)cc1)C(=O)NCC(=O)NCC(=O)N[C@@H](Cc1ccccc1)C(=O)N[C@@H](CC(C)C)C(=O)O (X1-GGFL-OH)
inhibition at 1 µM (Mus musculus): 20.4% | inhibition at 1 µM (Cavia porcellus): 15.9%

CCCN(CCC)[C@@H](Cc1ccc(O)cc1)C(=O)NCC(=O)NCC(=O)N[C@@H](Cc1ccccc1)C(=O)N[C@@H](CC(C)C)C(=O)O (X2-GGFL-OH)
inhibition at 1 µM (Mus musculus): 11.9% | inhibition at 1 µM (Cavia porcellus): -2.6%

CC(C)C[C@H](NC(=O)[C@H](Cc1ccccc1)NC(=O)CNC(=O)CNC(=O)[C@H](Cc1ccc(O)cc1)N(CC1CC1)CC1CC1)C(=O)O (X3-GGFL-OH)
inhibition at 1 µM (Mus musculus): 27.3% | inhibition at 1 µM (Cavia porcellus): 2.2%

CC(C)C[C@H](NC(=O)[C@H](Cc1ccccc1)NC(=O)CNC(=O)CNC(=O)[C@H](Cc1ccc(O)cc1)N(CCc1ccccc1)CCc1ccccc1)C(=O)O (X4-GGFL-OH)
inhibition at 1 µM (Mus musculus): 60.5% | inhibition at 1 µM (Cavia porcellus): 14.7%

CCCCCCCCN(CCCCCCCC)[C@@H](Cc1ccc(O)cc1)C(=O)NCC(=O)NCC(=O)N[C@@H](Cc1ccccc1)C(=O)N[C@@H](CC(C)C)C(=O)O (X5-GGFL-OH)
inhibition at 1 µM (Mus musculus): 39.2% | inhibition at 1 µM (Cavia porcellus): 8.1%

CC(C)C[C@H](NC(=O)[C@H](Cc1ccccc1)NC(=O)CNC(=O)CNC(=O)[C@H](Cc1ccc(O)cc1)N(Cc1ccccc1)Cc1ccccc1)C(=O)O ({Tyr(Nα,Nα-Bn2)}-GGFL-OH)
inhibition at 1 µM (Mus musculus): 11.4% | inhibition at 1 µM (Cavia porcellus): 1.9%

C=CCN(CC=C)[C@@H](Cc1ccc(O)cc1)C(=O)NCC(=O)NCC(=O)N[C@@H](Cc1ccccc1)C(=O)N[C@@H](CC(C)C)C(=O)O ({Tyr(Nα,Nα-allyl2)}-GGFL-OH)
inhibition at 1 µM (Mus musculus): 10% | inhibition at 1 µM (Cavia porcellus): -6.7%
